In ChEMBL document CHEMBL3832761, “MMV Pathogen Box Bioactivity Data” (2017):
In brackets after ≈: the same amount, converted by molar mass.

What was measured:
Assay type in all cases: functional
[1] = system: Mycobacterium tuberculosis; assay: AntiMycobacterium tuberculosis activity 2-week GAST/Fe MIC (uM); conditions: 336 h
[2] = system: Mycobacterium tuberculosis; assay: AntiMycobacterium tuberculosis activity 2-week Alamar Blue 7H9/cholesterol/BSA/Tx MIC (uM); conditions: 336 h
[3] = system: Mycobacterium tuberculosis; assay: AntiMycobacterium tuberculosis activity Replicating form: Average MIC90 (uM)
HepG2 = assay: HepG2 CC50 (uM) Cytotoxicity; conditions: Homo sapiens
[4] = system: Mycobacterium tuberculosis; assay: AntiMycobacterium tuberculosis activity 2-week 7H9/glucose/BSA/Tx MIC (uM); conditions: 336 h
[5] = system: Mycobacterium tuberculosis; assay: AntiMycobacterium tuberculosis activity 1-week 7H9/cholesterol/BSA/Tx MIC (uM); conditions: 168 h
[6] = system: Mycobacterium tuberculosis; assay: AntiMycobacterium tuberculosis activity 2-week Alamar Blue 7H9/ADC/Tw MIC (uM); conditions: 336 h
[7] = system: Mycobacterium tuberculosis; assay: AntiMycobacterium tuberculosis activity 1-week 7H9/DPPC/cholesterol/BSA/Tx MIC (uM); conditions: 168 h
[8] = system: Mycobacterium tuberculosis; assay: (§1) AntiMycobacterium tuberculosis activity day 10 in 7H9/2.5mM butyrate/pH6/0.1mM nitrite MIC90 (uM); conditions: 240 h
[9] = system: Mycobacterium tuberculosis; assay: AntiMycobacterium tuberculosis activity day 21 in 7H9/2.5mM butyrate/pH6/0.1mM nitrite MIC90 (uM); conditions: 504 h
[10] = system: Mycobacterium tuberculosis; assay: AntiMycobacterium tuberculosis activity 2-week 7H9/DPPC/cholesterol/BSA/Tx MIC (uM); conditions: 336 h
[11] = system: Mycobacterium tuberculosis; assay: AntiMycobacterium tuberculosis activity 1-week 7H9/ADC/Tw MIC (uM); conditions: 168 h
[12] = system: Mycobacterium tuberculosis; assay: AntiMycobacterium tuberculosis activity 1-week GAST/Fe MIC (uM); conditions: 168 h
[13] = system: Mycobacterium tuberculosis; assay: as §1; conditions: 240 h; remark: listed apart in the source
[14] = system: Mycobacterium tuberculosis; assay: AntiMycobacterium tuberculosis activity day 21 MIC99 in 7H9/2.5mM butyrate/pH6/0.1mM nitrite MIC99 (uM); conditions: 504 h
[15] = system: Mycobacterium tuberculosis; assay: AntiMycobacterium tuberculosis activity Non-Replicating form: Average MIC90 (uM)
[16] = system: Mycobacterium tuberculosis; assay: AntiMycobacterium tuberculosis activity 2-week 7H9/ADC/Tw MIC (uM); conditions: 336 h
[17] = system: Mycobacterium tuberculosis; assay: AntiMycobacterium tuberculosis activity 1-week 7H9/glucose/BSA/Tx MIC (uM); conditions: 168 h

| SMILES | MIC [1] [µM] | MIC [2] [µM] | MIC90 [3] [µM] | CC50 (HepG2) [µM] | MIC [4] [µM] | MIC [5] [µM] | MIC [6] [µM] | MIC [7] [µM] | MIC90 [8] [µM] | MIC90 [9] [µM] | MIC [10] [µM] | MIC [11] [µM] | MIC [12] [µM] | MIC90 [13] [µM] | MIC [14] [µM] | MIC90 [15] [µM] | MIC [16] [µM] | MIC [17] [µM] |
| --- | --- | --- | --- | --- | --- | --- | --- | --- | --- | --- | --- | --- | --- | --- | --- | --- | --- | --- |
| c1ccc(C[C@@H]2CN(c3nccc(Oc4ccc(-n5ccnc5)cc4)n3)CCN2)cc1 | 37 (≈ 15.3 µg/mL) | 12.5 (≈ 5.16 µg/mL) | 16.5 (≈ 6.82 µg/mL) | 29 | 50 (≈ 20.6 µg/mL) | 9.4 (≈ 3.88 µg/mL) | 19 (≈ 7.84 µg/mL) | 25 (≈ 10.3 µg/mL) | 50 (≈ 20.6 µg/mL) | 25 (≈ 10.3 µg/mL) | 37 (≈ 15.3 µg/mL) | 50 (≈ 20.6 µg/mL) | 37 (≈ 15.3 µg/mL) | 25 (≈ 10.3 µg/mL) | 50 (≈ 20.6 µg/mL) | 38.1 (≈ 15.7 µg/mL) | 50 (≈ 20.6 µg/mL) | 37 (≈ 15.3 µg/mL) |
| COc1ccc(Cn2cnc3c(-c4ccco4)nc(Cl)nc32)cc1 | 1.56 (≈ 0.532 µg/mL) | 3.13 (≈ 1.07 µg/mL) | > 100 | > 100 | > 50 | 6.25 (≈ 2.13 µg/mL) | 19 (≈ 6.47 µg/mL) | 4.7 (≈ 1.6 µg/mL) | > 50 | > 50 | > 50 | > 50 | 0.78 (≈ 0.266 µg/mL) | 50 (≈ 17 µg/mL) | > 50 | 8.43 (≈ 2.87 µg/mL) | > 50 | > 50 |
| Cc1ccc(NC(=O)CC2COc3ccccc3O2)cc1Cl (centres undefined) | 12.5 (≈ 3.97 µg/mL) | 25 (≈ 7.94 µg/mL) | 53.8 (≈ 17.1 µg/mL) | 66.7 | 25 (≈ 7.94 µg/mL) | 19 (≈ 6.04 µg/mL) | 50 (≈ 15.9 µg/mL) | 19 (≈ 6.04 µg/mL) | > 50 | 50 (≈ 15.9 µg/mL) | 37 (≈ 11.8 µg/mL) | 37 (≈ 11.8 µg/mL) | 9.4 (≈ 2.99 µg/mL) | 50 (≈ 15.9 µg/mL) | > 50 | 56.9 (≈ 18.1 µg/mL) | 50 (≈ 15.9 µg/mL) | 19 (≈ 6.04 µg/mL) |
| Cc1ccc2[nH]c(C3CCCNC3)c(-c3ccncc3)c2c1 (centres undefined) | 2.3 (≈ 0.67 µg/mL) | 9.4 (≈ 2.74 µg/mL) | 19.5 (≈ 5.68 µg/mL) | 12.7 | 50 (≈ 14.6 µg/mL) | 6.25 (≈ 1.82 µg/mL) | 12.5 (≈ 3.64 µg/mL) | 9.4 (≈ 2.74 µg/mL) | 25 (≈ 7.28 µg/mL) | 12.5 (≈ 3.64 µg/mL) | 9.4 (≈ 2.74 µg/mL) | 37 (≈ 10.8 µg/mL) | 1.56 (≈ 0.455 µg/mL) | 6.25 (≈ 1.82 µg/mL) | 25 (≈ 7.28 µg/mL) | 50.5 (≈ 14.7 µg/mL) | 50 (≈ 14.6 µg/mL) | 25 (≈ 7.28 µg/mL) |
| Nc1c2c(nc3sc4c(c13)CCCC4)CCCC2 | 2.3 (≈ 0.594 µg/mL) | 25 (≈ 6.46 µg/mL) | 52 (≈ 13.4 µg/mL) | 34.9 | 25 (≈ 6.46 µg/mL) | 12.5 (≈ 3.23 µg/mL) | 12.5 (≈ 3.23 µg/mL) | 12.5 (≈ 3.23 µg/mL) | > 50 | 50 (≈ 12.9 µg/mL) | 25 (≈ 6.46 µg/mL) | 25 (≈ 6.46 µg/mL) | 1.56 (≈ 0.403 µg/mL) | 50 (≈ 12.9 µg/mL) | > 50 | 94.6 (≈ 24.4 µg/mL) | 37 (≈ 9.56 µg/mL) | 19 (≈ 4.91 µg/mL) |
| Cc1nnc(NCc2cccc(Cl)c2)c2ccccc12 | 0.6 (≈ 0.17 µg/mL) | > 50 | > 100 | 76 | > 50 | 19 (≈ 5.39 µg/mL) | 1.56 (≈ 0.443 µg/mL) | ≥ 50 | > 50 | > 50 | > 50 | 50 (≈ 14.2 µg/mL) | 0.2 (≈ 0.0568 µg/mL) | 25 (≈ 7.09 µg/mL) | > 50 | 4.61 (≈ 1.31 µg/mL) | > 50 | > 50 |
| NC(=O)c1cc(Br)ccc1OCCOc1ccccc1 | 37 (≈ 12.4 µg/mL) | > 50 | > 100 | > 100 | > 50 | 50 (≈ 16.8 µg/mL) | > 50 | > 50 | > 50 | > 50 | > 50 | > 50 | 6.25 (≈ 2.1 µg/mL) | 50 (≈ 16.8 µg/mL) | > 50 | > 100 | > 50 | > 50 |
| CC1=NN(c2nc3ccccc3s2)C(=O)C1Cc1cccc2ccccc12 (centres undefined) | 3.13 (≈ 1.16 µg/mL) | 19 (≈ 7.06 µg/mL) | 96.7 (≈ 35.9 µg/mL) | 21.9 | 12.5 (≈ 4.64 µg/mL) | 12.5 (≈ 4.64 µg/mL) | 25 (≈ 9.29 µg/mL) | 12.5 (≈ 4.64 µg/mL) | 12.5 (≈ 4.64 µg/mL) | 12.5 (≈ 4.64 µg/mL) | 12.5 (≈ 4.64 µg/mL) | 19 (≈ 7.06 µg/mL) | 1.56 (≈ 0.579 µg/mL) | 6.25 (≈ 2.32 µg/mL) | 12.5 (≈ 4.64 µg/mL) | > 100 | 25 (≈ 9.29 µg/mL) | 12.5 (≈ 4.64 µg/mL) |
